In brackets after ≈: the same amount, converted by molar mass.
Columns and labels:
[1] = Dissolution test, paddle method, JP2, 50 rpm, Experimental Example 3; type: physicochemical; conditions: 900 mL JP2, paddle 50 rpm
Procedure: The acid addition salts of the present invention prepared in Examples 4 and 5 (25 mg as the amount of mirabegron) were used to carry out a dissolution test in accordance with the dissolution test, method 2 (paddle method) described in the Japanese Pharmacopoeia. As the test solution, 900 mL of the second fluid (JP2) described in the disintegration test of the Japanese Pharmacopoeia was used. The paddle rotation speed was 50 rpm. The same dissolution test was carried out using the mixtures prepared in Comparative Examples 2 to 5.

[2] = Drug concentration (solubility) in supernatant, Experimental Example 1; type: physicochemical; conditions: shaken at room temperature for 24 hours, 150 mg as mirabegron; for solubility thermodynamic at 24 h: thermodynamic from solid
Procedure: The drug concentration (solubility) of each compound to be assayed was measured in accordance with the following method.
After the shaking, the mixtures were centrifuged at 3000 rpm for 15 minutes, and the drug concentration in each supernatant was measured.

[3] = Pharmacokinetics test (dogs), fasted and fed, Experimental Example 4; type: in vivo, male beagle dogs; conditions: for AUC0-10 h / Cmax: oral, 50 mg as mirabegron, plasma
Procedure: The rates of decrease of Cmax and AUC are calculated by the following equations:
Rd(Cmax)=[1−Cmax(Fed)/Cmax(Fasted)]×100
Rd(AUC)=[1−AUC(Fed)/AUC(Fasted)]×100
Rd(Cmax): Rate of decrease of Cmax (%) Cmax(Fed): Cmax in administration after food intake Cmax(Fasted): Cmax in administration in the fasted state Rd(AUC): Rate of decrease of AUC (%) AUC(Fed): AUC in administration after food intake AUC(Fasted): AUC in administration in the fasted state
The resulting suspension was orally administered to male beagle dogs using a sonde in a fasted state (Fasted) or after 30 minutes from the intake of a meal (Fed), and the drug concentration in the plasma was measured after predetermined periods of time. As the meal, 50 g of meat feed was used.

[4] = Stability of stored suspension by dissolution test, Experimental Example 5; type: physicochemical; conditions: vs before storage
Procedure: The expression “the dissolution or leakage of mirabegron is reduced or inhibited” as used herein means when the pharmaceutical composition of the present invention, which was dispersed in a solvent and has been stored, is subjected to a dissolution test in accordance with the dissolution test, method 2 (paddle method) described in the Japanese Pharmacopoeia, using 900 mL of an appropriate test solution (for example, the second fluid (JP2) described in the dissolution test of the Japanese Pharmacopoeia), for example, at a paddle rotation speed of 50-200 rpm, the change in dissolution rate is 15% or less at the maximum in comparison with the value before the storage. The change in dissolution rate is 10% or less in another embodiment, 5% or less in still another embodiment, and 3% or less in still another embodiment.
These bottles were allowed to stand in a cool place (5° C.) or under room temperature conditions for a month. The xanthan gum solution was prepared by adding xanthan gum to water at a concentration of 1 W/W % while stirring. After the storage, each suspension (25 mg as the amount of mirabegron) was used to carry out a dissolution test in accordance with the dissolution test, method 2 (paddle method) described in the Japanese Pharmacopoeia. As the test solution, 900 mL of the second fluid (JP2) described in the disintegration test of the Japanese Pharmacopoeia was used. […]

[5] = in comparison with the fasted state

CCCCCCCCCCCCOS(=O)(=O)O.Nc1nc(CC(=O)Nc2ccc(CCNCC(O)c3ccccc3)cc2)cs1 (stereo not drawn) [Example 5]
Dissolution rate ([1]; 2 min.): 12.8% | Dissolution rate ([1]; 15 min.): 41.3%

Nc1nc(CC(=O)Nc2ccc(CCNC[C@H](O)c3ccccc3)cc2)cs1 [Mirabegron, (R)-2-(2-aminothiazol-4-yl)-4′-{2-[(2-hydroxy-2-phenylethyl)amino]ethyl}acetanilide]
solubility thermodynamic at 24 h ([2]; 10^-1 mol/L hydrochloric acid, simulated gastric fluid, 10^−1 mol/L HCl): 12.9 mg/mL (≈ 32600 µM) | solubility thermodynamic at 24 h ([2]; 10^-3 mol/L hydrochloric acid, aqueous buffer, 10^−3 mol/L HCl): 0.501 mg/mL (≈ 1260 µM) | solubility thermodynamic at 24 h ([2]; Purified water): 0.116 mg/mL (≈ 293 µM)

CCCCCCCCCCCCOS(=O)(=O)O.CCCCCCCCCCCCOS(=O)(=O)O.Nc1nc(CC(=O)Nc2ccc(CCNCC(O)c3ccccc3)cc2)cs1 (stereo not drawn) [Example 4]
Dissolution rate ([1]; 2 min.): 5.4% | Dissolution rate ([1]; 15 min.): 14.4%

CCCCCCCCCCCCOS(=O)(=O)O.CCCCCCCCCCCCOS(=O)(=O)O.Nc1nc(CC(=O)Nc2ccc(CCNC[C@H](O)c3ccccc3)cc2)cs1 [Example 1]
AUC0-10 h ([3]; Fasted): 1.027 ± 0.208 µg·h/mL | Cmax ([3]; Fasted): 0.295 ± 0.166 µg/mL | AUC0-10 h ([3]; Fed (30 minutes after meal)): 0.833 ± 0.122 µg·h/mL | Cmax ([3]; Fed (30 minutes after meal)): 0.229 ± 0.086 µg/mL | rate of decrease of AUC in the fed state [3, 5]: 19% | rate of decrease of Cmax in the fed state [3, 5]: 22% | change in dissolution rate at the maximum ([4]; suspension in xanthan gum solution stored at room temperature for a month): 0.8% | change in dissolution rate ([4]; suspension in xanthan gum solution stored in a cool place (5° C.) for a month): no change in dissolution rate was observed

CCCCCCCCCCCCCCCCOS(=O)(=O)O.CCCCCCCCCCCCCCCCOS(=O)(=O)O.Nc1nc(CC(=O)Nc2ccc(CCNC[C@H](O)c3ccccc3)cc2)cs1 [Example 3]
Drug concentration in supernatant ([2]; 10^−1 mol/L HCl): 64 µg/mL | Drug concentration in supernatant ([2]; 10^−3 mol/L HCl): 21 µg/mL | Drug concentration in supernatant ([2]; Purified water): 4 µg/mL

CCCCCCCCCCCCCCOS(=O)(=O)O.CCCCCCCCCCCCCCOS(=O)(=O)O.Nc1nc(CC(=O)Nc2ccc(CCNC[C@H](O)c3ccccc3)cc2)cs1 [Example 2]
Drug concentration in supernatant ([2]; 10^−1 mol/L HCl): 19 µg/mL | Drug concentration in supernatant ([2]; 10^−3 mol/L HCl): 30 µg/mL | Drug concentration in supernatant ([2]; Purified water): 10 µg/mL

Reference: US20150031734A1, “PHARMACEUTICAL COMPOSITION CONTAINING MIRABEGRON” (ASTELLAS PHARMA INC., priority 2012, published 2015)
